Assay results taken from patent publication US9493466B2, “Treatment of cancer with TOR kinase inhibitors” (Signal Pharmaceuticals, LLC, priority 2011, dated 2016).

Tests used:
U87MG tumors = assay: CD31 immunohistochemistry in U87MG tumors; assay type: in vivo, mice; conditions: 5 mg/kg BID oral for 4 days; p<0.001
Description: Mechanism of action studies. To determine the mechanism of action of Compound 1, mice bearing U87MG tumors of approximately 500 mm^3 were dosed orally with vehicle or Compound 1 at 5 mg/kg BID for 4 days. The positive control, rapamycin, was dosed at 4 mg/kg Q3D for 4 days. Two hours after the 7th dose of Compound 1 on day 4, animals were euthanized and tumors were dissected out and snap frozen in liquid nitrogen. In the rapamycin-treated group tumors were collected at 2 hour after the 2nd dose on day 4. The tumors were processed for immunohistochemistry (IHC) or TUNEL.
Immunohistochemistry. Five to ten micron (5-10 μm) thick cryostat sections were used for IHC. The expression of the cell proliferation marker Ki67 was evaluated by IHC using anti-Ki67 antibody. […] The sections were visualized with a Nikon E800 microscope equipped with fluorescence detection equipment and a digital camera attached to a computer.
Quantitation of Immunohistochemistry. The tissues sections processed for apoptosis or immunostained for proliferating cells (Ki67) or blood vessels were quantitated using Metamorph software. Using 20× objective, 5 different fields from each section, 2-4 sections from each tumor, and 3-4 tumors from each treatment group or control were used for quantitation. The area of interest was expressed as the percent threshold area of the total area. […]

G144-Luc cells = assay: G144 cancer stem cell derived intracranial glioblastoma model; assay type: in vivo, Nude mice; conditions: 10 mg/kg and 20 mg/kg QD oral, up to 6 weeks; FIG. 15
Description: G144 Cancer Stem Cell Derived Intracranial Glioblastoma Model (Compound 1). An intracranial glioblastoma study was conducted with G144 glioblastoma cells transfected with luciferase (G144-Luc). Nude mice were inoculated intracranially with G144-Luc cells into the brain. Following inoculation of animals, the tumors were allowed to grow for 5 weeks. At the end of 5 weeks following tumor cell inoculation, the mice were imaged using Xenogen imaging system. The mice having tumors with an average flux ranging between 3.71×10^6 and 3.87×10^7 photons/sec were pooled together and randomized into various treatment groups. Compound 1 was formulated in 0.5% CMC and 0.25% Tween 80 in water (as a suspension). The animals were orally administered vehicle (CMC-Tween) or Compound 1 once daily (QD) for up to 6 weeks. Doses of 10 mg/kg and 20 mg/kg Compound 1 were used. The positive control Temozolomide (TMZ) (10 mg/kg, QD) was administered via intra peritoneal (IP) route. Temozolomide was formulated in 5% N-methylpyrrolidone, 45% PEG400 and 50% saline. The animals were monitored for tumor growth by imaging for bioluminescence once a week using Xenogen imaging system. Statistical analysis was performed using a one-way analysis of variance (ANOVA) followed by Dunnett's post-hoc comparison with the vehicle-treated control groups.

With `CO[C@H]1CC[C@H](N2C(=O)CNc3ncc(-c4ccc(C(C)(C)O)nc4)nc32)CC1` [Compound 1, 7-(6-(2-hydroxypropan-2-yl)pyridin-3-yl)-1-((1r,4r)-4-methoxycyclohexyl)-3,4-dihydropyrazino-[2,3-b]pyrazin-2(1H)-one] the “reduction of CD31-positive blood vessels compared with vehicle” value (U87MG tumors) was 50% and the intracranial tumor growth (G144-Luc cells) was “significantly inhibited”.
